This is an account of results in publication PMC2820545, “Mechanistic Characterization and Molecular Modeling of Hepatitis B Virus Polymerase Resistance to Entecavir” (PLoS ONE, 2010).

The test system of one experiment is LVDr + M250V HBV. As to the kind of experiment: HBV cell culture susceptibility (HBV-transfected HepG2 cells). In kind it is cell-based. To be noted: Hepatitis B virus, averaged from 2 isolates, read-out: ETV EC50, Average ± SD (Range). As to the method:
(§1) HepG2 human hepatoma cells (American Type Culture Collection) were maintained as described. The laboratory clone of HBV was the genotype D ayw serotype clone kindly provided by Dr. Steven Goff in the plasmid pCMV-HBV [41]. Plasmids expressing HBV RT with resistance substitutions were prepared using QuikChange® site-directed mutagenesis (Stratagene, LaJolla, CA).
(§2) HepG2 cell culture susceptibility assays were performed in cells transfected with HBV expression plasmids and cultured in the presence of a titration of antiviral compounds, as described in detail elsewhere. The levels of replicated, released HBV virions was measured at day five through immunocapture of detergent released nucleocapsids with anti-HBV core Ab and quantification of encapsidated HBV DNA [5]. Data were plotted as percent inhibition and EC50 values calculated as the drug concentration where 50% inhibition of extracellular HBV occurred.

A further experiment deals with LVDr + S202G HBV. The experiment is described as above. It is filed as cell-based. The note with it: Hepatitis B virus, averaged from 2 isolates, read-out: ETV EC50, Average ± SD (Range). As to the method:
as §1, §2

The next experiment concerns LVDr + T184G + S202I HBV. Described as above. It is filed as cell-based. The note with it: Hepatitis B virus, single patient isolate, read-out: ETV EC50, Average ± SD (Range). As to the method: as §1, §2
A further experiment deals with LVDr + T184L HBV. Described as above. In kind it is cell-based. The note with it: Hepatitis B virus, averaged from 2 isolates, read-out: ETV EC50, Average ± SD (Range). On the procedure:
as §1, §2

Experiment [1] relates to LVDr L180M + M204V HBV. The description is as above. In kind it is cell-based. The note with it: Hepatitis B virus. As to the method:
as §1, §2

The test system of another experiment is Wildtype HBV. The description is as above. It is filed as cell-based. The note with it: Hepatitis B virus. On the procedure: as §1, §2
Experiment [2] deals with HBV clones with ETVr signature substitutions in a LVDr background. As to the kind of experiment: HBV cell culture susceptibility, ETVr clones as a group. It is filed as cell-based, hepatitis B virus.
Source text: The levels of ETVr observed in cell culture and in vitro enzymatic assays of representative clones with ETVr substitutions are shown in Table 1. […] High levels of ETVr were observed when HBV clones contained ETVr signature substitutions in a LVDr background both in vitro (>400-fold) and in culture (>200-fold), respectively (Table 1). A full analysis of the different ETVr substitutions in culture has been reported for engineered and clinical ETVr HBV isolates.
as §2

Experiment [3] deals with LVDr HBV with M250V or M250L. As to the kind of experiment: HBV cell culture strand-specific EC50 determination. It is filed as cell-based, hepatitis B virus. To be noted: strand-specific riboprobes. An excerpt:
(§3) ETV inhibits HBV polymerase synthesis of DNA in vitro during both RNA-directed first (minus) strand synthesis as well as DNA-directed second (plus) strand synthesis. To determine if ETVr was influenced by the template for DNA synthesis, cell culture EC50 determinations were made using strand-specific riboprobes to hybridize to the synthesized HBV DNA, in parallel with the typical double-stranded DNA probe. In this way an ETV EC50 for each strand of DNA synthesis during the HBV cell culture was determined. […] The minus strand EC50 was similar to the EC50 obtained using the double-stranded DNA probe. These observations are consistent with M250 changes in the primer-grip region of HBV RT influencing ETVr at least in part through the template for DNA synthesis. An independent observation supported this hypothesis; resistance was seen using nucleocapsids prepared in our typical manner (Materials & Methods), isolated from cells grown in PFA to inhibit minus strand synthesis, enhancing the in vitro minus-strand synthesis activity of the preparations. […]
(§4) Figure 5 Analysis of ETVr through strand-specific DNA synthesis in culture. […] The levels of HBV DNA synthesized in the presence of ETV was determined by HBV-specific probe hybridization to HBV nucleocapsid DNA from the cultures. […]

Experiment [4] has as its system wildtype, LVDr substituted and LVDr + T184 or S202 substituted HBV. Described as above. The note with it: strand-specific riboprobes, minus vs plus strand synthesis. It is filed as cell-based, hepatitis B virus.
Source text: as §3, §4

In experiment [5] the test system is wildtype or ETVr HBV polymerase. As to the kind of experiment: Pyrophosphorolysis removal of incorporated ETV from HBV DNA. In kind it is biochemical, hepatitis B virus. To be noted: wildtype or ETVr enzymes; data not shown. The text has this: The inability of ETV to be proofread by HIV RT has been reported by Tchesnokov et al..
For experiment [6], the system named is LVDr L180M + M204V HBV. Further details: method as in PMID 17267485, PMID 18362040. To be noted: cited from earlier work.

Like-named read-outs stand apart in the source and are kept apart here. Some results are limits rather than exact numbers.

`C=C1[C@H](CO)[C@@H](O)C[C@@H]1n1cnc2c(=O)[nH]c(N)nc21` [ETV, Entecavir]: the EC50 in the experiment on LVDr + M250V HBV was 3080 nM; in the experiment with LVDr + S202G HBV, 1210 nM; in the experiment on LVDr + T184G + S202I HBV, above 4000 nM; in the experiment with LVDr + T184L HBV, 738 ± 119 nM; with LVDr L180M + M204V HBV [1] (Cell culture, LVDr L180M + M204V, single isolate, read-out: ETV EC50, Average ± SD (Range)), 30.4 ± 21.6 nM; in the experiment on LVDr L180M + M204V HBV [1] (panel of 15 LVDr isolates, read-out: average ETV EC50), 31.1 nM. Also, the EC50 in the experiment on Wildtype HBV (Cell culture, Wildtype HBV, single isolate, read-out: ETV EC50, Average ± SD (Range)) is 3 ± 1.5 nM; with Wildtype HBV (panel of 76 wildtype isolates, read-out: average ETV EC50), 3.4 nM. Besides, the “level of ETVr in culture” value in experiment [2] is reported as above 200 fold. Besides, the “strand-specific ETV EC50, first (minus) strand versus second (plus) strand” value in experiment [3] is reported as “increased relative to that for the second (plus) strand”. Moreover, the “strand-specific ETV EC50, both strands of HBV DNA compared” value in experiment [4] is given as “nearly equivalent levels of susceptibility”. Also, the “removal of ETV incorporated into HBV DNA using pyrophosphorolysis” value in [5] was “unable to demonstrate removal”. The “cross-resistance to ETV in culture” value in the experiment on LVDr L180M + M204V HBV [6] is reported as “approximately 8 fold”.
